{
  "source": "paper PMC7578299",
  "about": "“The antiviral effects of baloxavir marboxil against influenza A virus infection in ferrets” (Influenza and Other Respiratory Viruses, 2020)",
  "key": {"[1]": {"experiment": "Metabolic stability in liver microsomes, ferret", "type": "in vitro ADME", "settings": "for % Residual in liver microsome / % Residual in liver microsome Individual value: ferret; for % Residual in liver microsome: 0.5 mg/mL, 2 μmol/L, 37°C, mean of duplicates; for % Residual in liver microsome Individual value: duplicates", "experimental": "(§1) Liver microsomes were prepared from ferrets, rats, dogs, and monkeys, as previously described. ^28 Human liver microsomes were obtained from Sekisui‐XenoTech, LLC and pooled (n = 15). Metabolic stability of the compounds in liver microsomes was tested in duplicate. Oseltamivir and cefcapene pivoxil were used as reference compounds. Liver microsomes at 0.5 mg/mL concentration (final volume of 0.2 mL) were incubated in Tris‐HCl buffer (pH 7.4), containing 50 mmol/L Tris‐HCl, 150 mmol/L KCl, 10 mmol/L MgCl2. The hydrolysis reaction was initiated by applying the test compound solution (final concentration 2 μmol/L). After incubation for 10, 20, and 30 minutes at 37°C, the hydrolysis was terminated by the addition of twofold volume of ice‐cold acetonitrile/methanol (1:1, v/v). Samples were centrifuged at 3000 rpm for 10 minutes prior to LC‐MS/MS analysis of compounds in the supernatants."}, "[2]": {"experiment": "Metabolic stability in liver microsomes, monkey", "type": "in vitro ADME", "settings": "monkey; for % Residual in liver microsome: 0.5 mg/mL, 2 μmol/L, 37°C, mean of duplicates; for % Residual in liver microsome Individual value: duplicates", "experimental": "as §1"}, "influenza virus": {"tested_on": "influenza virus", "set-up": "method as in PMID 30288682", "settings": "patients, cited from earlier work"}},
  "note": "“And” between values parts separate entries of the source, which are not always exact repeats. Equal entries are not always repeated.",
  "data": [
    {"compound": "COC(=O)OCOc1c2n(ccc1=O)N([C@@H]1c3ccccc3SCc3c1ccc(F)c3F)[C@@H]1COCCN1C2=O", "note": "[BXM, Baloxavir marboxil]", "values": [
      {"measurement": "stability in liver microsomes (in words)", "setting": "[1]; ferret liver microsomes", "value": "stable"},
      {"measurement": "% Residual in liver microsome", "setting": "[1]; 10 min", "value": 98.5, "unit": "%"},
      {"measurement": "% Residual in liver microsome", "setting": "[1]; 20 min", "value": 98.1, "unit": "%"},
      {"measurement": "% Residual in liver microsome", "setting": "[1]; 30 min", "value": 90.8, "unit": "%"},
      {"measurement": "% Residual in liver microsome Individual value", "setting": "[1]; 10 minutes", "value": "97.0% and 99.9%"},
      {"measurement": "% Residual in liver microsome Individual value", "setting": "[1]; 20 minutes", "value": "98.3% and 97.9%"},
      {"measurement": "% Residual in liver microsome Individual value", "setting": "[1]; 30 minutes", "value": "87.4% and 94.2%"},
      {"measurement": "% Residual in liver microsome", "setting": "[2]; 10 min", "value": 0.0, "unit": "%"},
      {"measurement": "% Residual in liver microsome", "setting": "[2]; 20 min", "value": 0.0, "unit": "%"},
      {"measurement": "% Residual in liver microsome", "setting": "[2]; 30 min", "value": 0.0, "unit": "%"},
      {"measurement": "% Residual in liver microsome Individual value", "setting": "[2]; 10 minutes", "value": 0.0, "unit": "%"},
      {"measurement": "% Residual in liver microsome Individual value", "setting": "[2]; 20 minutes", "value": 0.0, "unit": "%"},
      {"measurement": "% Residual in liver microsome Individual value", "setting": "[2]; 30 minutes", "value": 0.0, "unit": "%"},
      {"measurement": "time within which infectious virus titers declined", "setting": "influenza virus; single weight-based oral dose 40 or 80 mg", "value": "≤ 1", "unit": "days"},
      {"measurement": "time to alleviation of symptoms (in words)", "setting": "influenza virus; vs placebo and OSP", "value": "superior compared with placebo but not significantly different from the effect of OSP treatment"}
    ]}
  ]
}
